Source: patent publication US20100184094A1, “USE OF MDCK CELLS IN THE EVALUATION OF CHOLESTEROL MODULATORS” (priority 2007, published 2010)

Target: T1, rat NPC1L1 (Rattus norvegicus, UniProt Q6T3U3)
T1 construct: expressed in transfected cells
Experiment: [3H]AS binding to rNPC1L1/HEK293 cells (saturation, kinetics, competition, acid wash)
Conditions: for IC50: 5.36 nM [3H]AS, 4 h, 37° C., read-out: IC50 inhibition of [3H]AS binding; for Ki: rNPC1L1/HEK293 cells
Method: rNPC1L1/HEK293 and TsA201 cells were seeded at a density of 10,000 cells per well in 96-well poly-D-lysine coated plates and cells were allowed to attach for approximately 18 h at 37° C. TsA201 cells were subsequently transfected with dog NPC1L1/pcDNA5/FRT according to the manufacturer's instructions (Roche) and incubated for 3 days at 37° C. MDCKII-derived, LLC-PKI, HepG2, or CaCo-2 cells were seeded at a density of 25,000 cells per well in 96-well tissue culture treated plates, and cells were allowed to attach and differentiate for approximately 72 h at 37° C., except for CaCo-2 cells where differentiation took approximately 14 days at 37° C. […] Duplicate samples were averaged for each experimental point. […] To determine the kinetics of ligand association, cells were incubated with [^3H]AS for different periods of time. Dissociation kinetics were determined by addition of 100 μM EZE-gluc, and incubating for different periods of time. Nonspecific binding was defined in the presence of 100 μM EZE-gluc. At the end of the incubation period, cells were washed twice with 200 μl of pre-warmed DMEM to separate bound from free ligand, 1% SDS was added to the wells followed by 5 ml of Scintillant, and radioactivity associated with cells was determined using a β-counter. […] Thereafter, plates were placed on ice and cells were washed twice with ice-cold PBS, followed by ice-cold acid wash with DMEM, pH 3.5, for 1, 5 or 15 minutes. […] For Transwell experiments, MDCKII cells were seeded at 200,000 cells/well in a 24-well plate and incubated for 3 days at 37° C. […] Thereafter, both apical and basolateral compartments were washed three times with PBS, and the Transwell filter was cut out and its associated radioactivity determined using afi-counter. Data from saturation, competition and ligand dissociation experiments were analyzed as described in the literature; see, Priest, et al., 2004 Biochemistry 43:9866-9876; Knaus et al., 1995 Biochemistry 34:13627-13634. The association rate, k1, was determined by employing the pseudo-first-order rate equation k1=kobs([LR]e/[L][LR]max)) where [LR]max is the concentration of the complex at equilibrium, [L] is the concentration of ligand, [LR]max is the total receptor concentration, kobs is the slope of the pseudo-first order plot, ln([LR]e/([LR]e−[LR]t)) versus time, and [LR]t is the receptor-ligand complex at one given time point t.
Incubation of rNPC1L1/HEK293 cells with 5 nM [311]AS results in a time-dependent association of ligand with cells that reaches equilibrium in ˜3 h (FIG. 1B). The nonspecific binding component is time-independent and has been subtracted from the experimental data. A semilogarithmic transformation of the data yielded a linear dependence (FIG. 1B, inset), as expected for a pseudo-first order reaction, and the slope of this line gives kobs of 0.0208 min^−1. The association rate constant, k1, calculated as described under Example 3, is 2.4×10^6 M^−1 min^−1.
Ki values, determined as described above, are presented in Table 1 below and display the expected rank order of potency for interaction of these ligands with rat NPC1L1; Garcia-Calvo et al., 2005 Proc. Natl. Acad. Sci. USA 102:8132-8137.
Such an approach has previously been previously used to characterize cell surface, non-covalent interactions; Hopkins & Trowbridge, 1983 J. Cell Biol. 97:508-521; Chen et al., 1998 Proc. Natl. Acad. USA 95:6373-6378.

Structure (SMILES) | IC50 | Ki
COC(=O)[C@H]1O[C@@H](Oc2ccc([C@@H]3[C@@H](CC[C@H](O)c4ccc(F)cc4)C(=O)N3c3ccc(C#CCNS(C)(=O)=O)cc3)cc2)[C@H](O)[C@@H](O)[C@@H]1O [PS, 4-[(2S,3R)-3-[(3S)-3-(4-fluorophenyl)-3-hydroxypropyl]-1-(4-{3-[(methylsulfonyl)amino]prop-1-yn-1-yl}phenyl)-4-oxoazetidin-2-yl]phenyl methyl-β-D-glucopyranosiduronate] | 6.61 nM | 4.07 ± 1.47 nM
O=C(O)[C@H]1O[C@@H](Oc2ccc([C@@H]3[C@@H](CC[C@H](O)c4ccc(F)cc4)C(=O)N3c3ccc(F)cc3)cc2)[C@H](O)[C@@H](O)[C@@H]1O [EZE-gluc, ezetimibe glucuronide] | 182 nM | 95.1 ± 8.62 nM
O=C1[C@H](CC[C@H](O)c2ccc(F)cc2)[C@@H](c2ccc(O)cc2)N1c1ccc(F)cc1 [EZE, Ezetimibe] | 398 nM | 209 ± 40.4 nM
